According to patent publication US10632119B2, “Fused bicyclic 2,4-diaminopyrimidine derivative as a dual ALK and FAK inhibitor” (priority 2012, dated 2020):

Key:
Histamine H2 = Histamine H2 (Homo sapiens, UniProt P25021); test: Receptor selectivity (Cerep); assay type: binding
Muscarinic M4 = Muscarinic M4 (Homo sapiens, UniProt P08173); test: Receptor selectivity (Cerep); assay type: binding
[1] = In vitro metabolic stability, human; assay type: in vitro ADME; conditions: human (H); read-out: In vitro metabolic stability t1/2
CYP 2C19 = CYP 2C19 (Homo sapiens, UniProt P33261); test: CYP inhibition; assay type: in vitro ADME
CYP 2C19, sequence (P33261 whole entry): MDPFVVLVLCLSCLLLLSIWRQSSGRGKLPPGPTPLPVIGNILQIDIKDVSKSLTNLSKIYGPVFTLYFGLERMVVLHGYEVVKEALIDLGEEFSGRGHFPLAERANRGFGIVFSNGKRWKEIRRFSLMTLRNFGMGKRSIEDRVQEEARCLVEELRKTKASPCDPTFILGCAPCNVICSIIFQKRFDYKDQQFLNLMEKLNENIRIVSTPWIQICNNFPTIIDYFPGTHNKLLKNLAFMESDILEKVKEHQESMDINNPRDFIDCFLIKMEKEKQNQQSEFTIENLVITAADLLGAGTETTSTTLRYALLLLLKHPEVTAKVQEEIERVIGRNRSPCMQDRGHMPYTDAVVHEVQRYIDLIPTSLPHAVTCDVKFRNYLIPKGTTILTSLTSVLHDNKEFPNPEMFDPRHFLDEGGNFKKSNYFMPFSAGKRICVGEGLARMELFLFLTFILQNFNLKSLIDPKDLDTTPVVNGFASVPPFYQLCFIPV

CYP 2D6 = CYP 2D6 (Homo sapiens, UniProt P10635); test: CYP inhibition; assay type: in vitro ADME
CYP 2D6, sequence (P10635 whole entry): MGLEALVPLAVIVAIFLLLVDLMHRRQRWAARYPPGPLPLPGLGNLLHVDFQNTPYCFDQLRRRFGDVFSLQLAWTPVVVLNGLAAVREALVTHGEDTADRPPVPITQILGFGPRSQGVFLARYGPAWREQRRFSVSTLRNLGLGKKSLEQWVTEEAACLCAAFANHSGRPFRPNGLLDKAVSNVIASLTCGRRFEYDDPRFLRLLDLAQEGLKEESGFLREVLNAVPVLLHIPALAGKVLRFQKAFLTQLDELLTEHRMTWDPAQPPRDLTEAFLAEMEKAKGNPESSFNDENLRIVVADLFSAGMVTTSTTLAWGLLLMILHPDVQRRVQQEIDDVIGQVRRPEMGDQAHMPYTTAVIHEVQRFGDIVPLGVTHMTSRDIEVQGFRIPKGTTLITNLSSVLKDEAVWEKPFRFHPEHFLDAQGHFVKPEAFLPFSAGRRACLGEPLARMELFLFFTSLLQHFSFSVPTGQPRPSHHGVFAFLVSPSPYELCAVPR

Protein binding, mouse = assay type: in vitro ADME; conditions: mouse (M)
CYP3A4 = CYP3A4 induction in vitro; conditions: @ 10 μM

Muscarinic M4, sequence (P08173 whole entry): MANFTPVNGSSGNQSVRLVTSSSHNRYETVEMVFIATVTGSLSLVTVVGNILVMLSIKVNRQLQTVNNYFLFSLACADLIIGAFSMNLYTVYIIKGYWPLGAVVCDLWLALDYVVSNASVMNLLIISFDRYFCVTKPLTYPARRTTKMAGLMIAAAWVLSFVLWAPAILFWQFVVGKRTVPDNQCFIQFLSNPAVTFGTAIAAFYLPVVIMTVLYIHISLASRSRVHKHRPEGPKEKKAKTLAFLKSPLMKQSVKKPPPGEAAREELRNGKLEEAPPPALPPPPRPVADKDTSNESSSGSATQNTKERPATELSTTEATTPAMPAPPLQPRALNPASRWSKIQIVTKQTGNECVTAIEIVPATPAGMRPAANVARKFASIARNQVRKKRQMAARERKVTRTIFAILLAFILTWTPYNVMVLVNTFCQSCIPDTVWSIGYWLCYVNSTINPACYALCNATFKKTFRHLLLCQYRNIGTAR
Histamine H2, sequence (P25021 whole entry): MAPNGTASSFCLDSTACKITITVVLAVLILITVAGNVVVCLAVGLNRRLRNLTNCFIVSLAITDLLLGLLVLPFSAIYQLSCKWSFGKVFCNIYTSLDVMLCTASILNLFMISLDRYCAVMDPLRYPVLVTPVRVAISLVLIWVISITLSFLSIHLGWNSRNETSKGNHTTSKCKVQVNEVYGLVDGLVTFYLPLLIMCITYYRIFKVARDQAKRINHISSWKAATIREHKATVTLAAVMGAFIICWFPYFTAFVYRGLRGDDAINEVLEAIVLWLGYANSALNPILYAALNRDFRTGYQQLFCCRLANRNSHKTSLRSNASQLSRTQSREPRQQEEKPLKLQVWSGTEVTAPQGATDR

Q: For CNC(=O)c1ccccc1Nc1nc(Nc2ccc3c(c2OC)CCC[C@H](N2CCN(CCO)CC2)C3)ncc1Cl [CEP-37440, 2-[[5-chloro-2-[[(6S)-6-[4-(2-hydroxyethyl)piperazin-1-yl]-1-methoxy-6,7,8,9-tetrahydro-5H-benzo[7]annulen-2-yl]amino]pyrimidin-4-yl]amino]-N-methyl-benzamide], which Ki (Histamine H2) is on record?
A: The Ki was 5.2 µM.

Q: What about the Ki (Muscarinic M4) of the same compound?
A: Its Ki is 0.46 µM.

Q: What about the half-life [1] of the same compound?
A: The half-life was greater than 40 min.

Q: What about the IC50 (CYP 2C19) of the same compound?
A: Its IC50 is greater than 20 µM.

Q: And the IC50 (CYP 2D6)?
A: Its IC50 is greater than 30 µM.

Q: What about the Protein binding (Protein binding, mouse) of the same compound?
A: The Protein binding was 85 % bound.

Q: And the “CYP3A4 induction in vitro” value (CYP3A4)?
A: Its value is 1.5 @ 10 μM fold.
